Test results published in patent publication US20250092039A1, “GLUTARIMIDE-CONTAINING PAN-KRAS-MUTANT DEGRADER COMPOUNDS AND USES THEREOF” (Tiger Biotherapeutics Inc., priority 2022, published 2025).
Like-named read-outs stand apart in the source and are kept apart here.

How the values were obtained:
KRAS G12V = KRAS G12V (Homo sapiens (Human), UniProt P01116, G12V); test: KRAS G12V degradation in SW620 cells (Western blot, DC50); assay type: cell-based; conditions: 24 hours
Method in brief: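 SW620 cells (homozygous KRAS G12V) were treated with compound for 24 hours at 37° C. KRAS in lysates was measured by Western blot with fluorescent secondary antibodies and expressed relative to DMSO vehicle (100%). DC50 came from a four-parameter variable-slope dose-response fit.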

KRAS-G12V/RAF1 = KRAS-G12V/RAF1 (Homo sapiens (Human), UniProt P01116, G12V); test: KRAS/RAF1 binding inhibition assay (AlphaScreen)
Method in brief: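 Binding of GppNHp-loaded KRAS G12V to the RAF1 RBD was measured by AlphaScreen with test compound present in 2% DMSO (final), 60 min incubation at 4° C. Signals were converted to % inhibition versus DMSO, and IC50 was obtained by variable-slope nonlinear regression.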

[1] = Pharmacokinetics following single intravenous and oral gavage dosing (AUC0-24h); assay type: in vivo; conditions: mouse, plasma, male CD-1 mice
Description: Compounds disclosed herein were studied for animal tolerability and pharmacokinetics following single intravenous (iv) and oral gavage (po) dosing to male CD-1 mice. For each compound in each dosing route, 3 mice were used with iv dosing volume of 5 mL/kg and po dosing volume of 10 mL/kg. The compounds were formulated in 10% DMSO, 30% PEG400, 60% aqueous solution containing 20% 2-hydroxypropyl-β-cyclodextrin. Blood sampling time points for iv dosing were 0.083, 0.25, 0.5, 1, 2, 4, 8 and 24 h. The sampling time points for po dosing were 0.25, 0.5, 1, 2, 4, 6, 8 and 24 h. Mice activities were monitored and recorded immediately following the dosing. The prepared plasma samples were analyzed using LC/MS/MS on AB Sciex Triple Quad 5500+ system. The PK parameters were determined by non-compartmental analysis using WinNonlin (Version 8.0).

SW620 cells = test: 3D cell growth inhibition of SW620 cells carrying endogenous KRAS G12V mutation (CellTiter-Glo 3D, GI50); assay type: cell-based; conditions: Homo sapiens, SW-620, 144 h, read-out: SW620 3D cell growth GI50
Method in brief: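 SW620 cells (endogenous KRAS G12V) grown in 3D were dosed next day with compound from DMSO stocks at various concentrations, then incubated 6 days at 37° C.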

Sequence of KRAS-G12V/RAF1 (P01116-2 other isoform, or with tags, fused parts or gaps G12V): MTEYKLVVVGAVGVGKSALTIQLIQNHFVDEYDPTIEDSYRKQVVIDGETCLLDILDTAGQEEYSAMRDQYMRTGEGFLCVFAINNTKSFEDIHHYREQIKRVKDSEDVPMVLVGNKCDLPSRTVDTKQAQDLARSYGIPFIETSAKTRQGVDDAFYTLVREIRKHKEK
Sequence of KRAS G12V (P01116-2 other isoform, or with tags, fused parts or gaps G12V): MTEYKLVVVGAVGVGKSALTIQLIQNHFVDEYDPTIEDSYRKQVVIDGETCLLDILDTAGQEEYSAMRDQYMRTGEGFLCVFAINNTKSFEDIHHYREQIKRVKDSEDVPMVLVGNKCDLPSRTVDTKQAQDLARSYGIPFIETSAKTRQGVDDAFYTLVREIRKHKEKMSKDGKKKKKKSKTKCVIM

Structure (SMILES)	DC50 (KRAS G12V)	IC50 (KRAS-G12V/RAF1)	AUC(0-t) ([1]; single oral dose 30 mg/Kg)	GI50 (SW620 cells; SW620 cells, 6 days)	AUC(0-t) ([1]; single oral dose 50 mg/Kg)	GI50 (SW620 cells)
CCc1c(F)ccc2cc(O)cc(-c3ncc4c(N5CCC[C@@](C)(O)C5)nc(OCC5(CN6CC7(CCC(N8CCN(c9cc(F)c(C%10CCC(=O)NC%10=O)c(F)c9)CC8)CC7)C6)CC5)nc4c3F)c12 (stereo partly drawn) [Compound 60, 3-(4-(4-(2-((1-(((7-(8-ethyl-7-fluoro-3-hydroxynaphthalen-1-yl)-8-fluoro-4-((R)-3-hydroxy-3-methylpiperidin-1-yl)pyrido[4,3-d]pyrimidin-2-yl)oxy)methyl)cyclopropyl)methyl)-2-azaspiro[3.5]nonan-7-yl)piperazin-1-yl)-2,6-difluorophenyl)piperidine-2,6-dione]	< 1 nM	20 to 200 nM	1780 ng·h/mL	< 10 nM		
CCc1c(F)ccc2cc(O)cc(-c3ncc4c(N5CCC[C@@](C)(O)C5)nc(OCC5(CN6CC(F)(CN7CC8(CCN(c9ccc%10c(c9)CN([C@H]9CCC(=O)NC9=O)C%10=O)CC8)C7)C6)CC5)nc4c3F)c12 [Compound 68, (S)-3-(5-(2-((1-((1-(((7-(8-ethyl-7-fluoro-3-hydroxynaphthalen-1-yl)-8-fluoro-4-((R)-3-hydroxy-3-methylpiperidin-1-yl)pyrido[4,3-d]pyrimidin-2-yl)oxy)methyl)cyclopropyl)methyl)-3-fluoroazetidin-3-yl)methyl)-2,7-diazaspiro[3.5]nonan-7-yl)-1-oxoisoindolin-2-yl)piperidine-2,6-dione]	1 to 10 nM	> 200 nM	901 ng·h/mL	< 10 nM		
CCc1c(F)ccc2cc(O)cc(-c3ncc4c(N5CCC[C@]6(CCO6)C5)nc(OCC5(CN6CCC(F)(CN7CCN(c8ccc9c(c8)CN([C@H]8CCC(=O)NC8=O)C9=O)CC7)CC6)CC5)nc4c3F)c12 [Compound 86, (S)-3-(5-(4-((1-((1-(((7-(8-ethyl-7-fluoro-3-hydroxynaphthalen-1-yl)-8-fluoro-4-((S)-1-oxa-6-azaspiro[3.5]nonan-6-yl)pyrido[4,3-d]pyrimidin-2-yl)oxy)methyl)cyclopropyl)methyl)-4-fluoropiperidin-4-yl)methyl)piperazin-1-yl)-1-oxoisoindolin-2-yl)piperidine-2,6-dione]	< 1 nM	20 to 200 nM	1320 ng·h/mL	< 10 nM		
CCc1c(F)ccc2cc(O)cc(-c3ncc4c(N5CCC[C@@](C)(O)C5)nc(OCC5(CN6CCC7(CCC(N8CCN(c9ccc%10c(c9)CN([C@H]9CCC(=O)NC9=O)C%10=O)CC8)CC7)CC6)CC5)nc4c3F)c12 [Compound 120, (S)-3-(5-(4-(3-((1-(((7-(8-ethyl-7-fluoro-3-hydroxynaphthalen-1-yl)-8-fluoro-4-((R)-3-hydroxy-3-methylpiperidin-1-yl)pyrido[4,3-d]pyrimidin-2-yl)oxy)methyl)cyclopropyl)methyl)-3-azaspiro[5.5]undecan-9-yl)piperazin-1-yl)-1-oxoisoindolin-2-yl)piperidine-2,6-dione]	1 to 10 nM	< 20 nM		< 10 nM	255 ng·h/mL	
CCc1c(F)ccc2cc(O)cc(-c3ncc4c(N5CCC[C@@](C)(O)C5)nc(OCC5(CN6CCC7(CC6)CC(N6CCN(c8ccc9c(c8)CN([C@H]8CCC(=O)NC8=O)C9=O)CC6)C7)CC5)nc4c3F)c12 [Compound 121, (S)-3-(5-(4-(7-((1-(((7-(8-ethyl-7-fluoro-3-hydroxynaphthalen-1-yl)-8-fluoro-4-((R)-3-hydroxy-3-methylpiperidin-1-yl)pyrido[4,3-d]pyrimidin-2-yl)oxy)methyl)cyclopropyl)methyl)-7-azaspiro[3.5]nonan-2-yl)piperazin-1-yl)-1-oxoisoindolin-2-yl)piperidine-2,6-dione]	< 1 nM	< 20 nM		< 10 nM	598 ng·h/mL	
CCc1c(F)ccc2cc(O)cc(-c3ncc4c(N5CCC[C@@](C)(O)C5)nc(OCC5(CN6CCC7(CC6)CC(F)(CN6CCN(c8ccc9c(c8)CN([C@H]8CCC(=O)NC8=O)C9=O)CC6)C7)CC5)nc4c3F)c12 [Compound 134, (S)-3-(5-(4-((7-((1-(((7-(8-ethyl-7-fluoro-3-hydroxynaphthalen-1-yl)-8-fluoro-4-((R)-3-hydroxy-3-methylpiperidin-1-yl)pyrido[4,3-d]pyrimidin-2-yl)oxy)methyl)cyclopropyl)methyl)-2-fluoro-7-azaspiro[3.5]nonan-2-yl)methyl)piperazin-1-yl)-1-oxoisoindolin-2-yl)piperidine-2,6-dione]	< 1 nM	20 to 200 nM	982 ng·h/mL		1940 ng·h/mL	< 10 nM
CCc1c(F)ccc2cc(O)cc(-c3ncc4c(N5CCC[C@@](C)(O)C5)nc(OCC5(CN6CCC(OC7CC8(CCN(c9ccc%10c(c9)CN(C9CCC(=O)NC9=O)C%10=O)CC8)C7)CC6)CC5)nc4c3F)c12 (stereo partly drawn) [Compound 182, 3-[5-[2-[[1-[[1-[[7-(8-ethyl-7-fluoro-3-hydroxy-1-naphthyl)-8-fluoro-4-[(3R)-3-hydroxy-3-methyl-1-piperidyl]pyrido[4,3-d]pyrimidin-2-yl]oxymethyl]cyclopropyl]methyl]-4-piperidyl]oxy]-7-azaspiro[3.5]nonan-7-yl]-1-oxo-isoindolin-2-yl]piperidine-2,6-dione]	< 1 nM	20 to 200 nM	4900 ng·h/mL	< 10 nM		
CCc1c(F)ccc2cc(O)cc(-c3ncc4c(N5CCC[C@@](C)(O)C5)nc(OCC5(CN6CCC(OC7CCC8(CC7)CN(c7ccc9c(c7)CN(C7CCC(=O)NC7=O)C9=O)C8)CC6)CC5)nc4c3F)c12 (stereo partly drawn) [Compound 184, 3-[5-[7-[[1-[[1-[[7-(8-ethyl-7-fluoro-3-hydroxy-1-naphthyl)-8-fluoro-4-[(3R)-3-hydroxy-3-methyl-1-piperidyl]pyrido[4,3-d]pyrimidin-2-yl]oxymethyl]cyclopropyl]methyl]-4-piperidyl]oxy]-2-azaspiro[3.5]nonan-2-yl]-1-oxo-isoindolin-2-yl]piperidine-2,6-dione]	< 1 nM	> 200 nM	12500 ng·h/mL	< 10 nM		
CCc1c(F)ccc2cc(O)cc(-c3ncc4c(N5CCC[C@@](C)(O)C5)nc(OCC5(CN6CCC(C)(CN7CCC(N8CCN(c9ccc%10c(c9)CN([C@H]9CCC(=O)NC9=O)C%10=O)CC8)CC7)CC6)CC5)nc4c3F)c12 [Compound 213, (S)-3-(5-(4-(1-((1-((1-(((7-(8-ethyl-7-fluoro-3-hydroxynaphthalen-1-yl)-8-fluoro-4-((R)-3-hydroxy-3-methylpiperidin-1-yl)pyrido[4,3-d]pyrimidin-2-yl)oxy)methyl)cyclopropyl)methyl)-4-methylpiperidin-4-yl)methyl)piperidin-4-yl)piperazin-1-yl)-1-oxoisoindolin-2-yl)piperidine-2,6-dione]	< 1 nM	< 20 nM	1360 ng·h/mL	< 10 nM		
CCc1c(F)ccc2cc(O)cc(-c3ncc4c(N5CCC[C@]6(CCO6)C5)nc(OCC5(CN6CCC7(CC6)CC(F)(CN6CCN(c8ccc9c(c8)CN([C@H]8CCC(=O)NC8=O)C9=O)CC6)C7)CC5)nc4c3F)c12 [Compound 214, (S)-3-(5-(4-((7-((1-(((7-(8-ethyl-7-fluoro-3-hydroxynaphthalen-1-yl)-8-fluoro-4-((S)-1-oxa-6-azaspiro[3.5]nonan-6-yl)pyrido[4,3-d]pyrimidin-2-yl)oxy)methyl)cyclopropyl)methyl)-2-fluoro-7-azaspiro[3.5]nonan-2-yl)methyl)piperazin-1-yl)-1-oxoisoindolin-2-yl)piperidine-2,6-dione]	< 1 nM	20 to 200 nM	1460 ng·h/mL	< 10 nM		
CCc1c(F)ccc2cc(O)cc(-c3ncc4c(N5CCC[C@]6(CCO6)C5)nc(OCC5(CN6CCC7(CC6)CC(F)(CN6CCN(c8cc(F)c(C9CCC(=O)NC9=O)c(F)c8)CC6)C7)CC5)nc4c3F)c12 (stereo partly drawn) [Compound 215, 3-(4-(4-((7-((1-(((7-(8-ethyl-7-fluoro-3-hydroxynaphthalen-1-yl)-8-fluoro-4-((S)-1-oxa-6-azaspiro[3.5]nonan-6-yl)pyrido[4,3-d]pyrimidin-2-yl)oxy)methyl)cyclopropyl)methyl)-2-fluoro-7-azaspiro[3.5]nonan-2-yl)methyl)piperazin-1-yl)-2,6-difluorophenyl)piperidine-2,6-dione]	< 1 nM	20 to 200 nM	4710 ng·h/mL	< 10 nM		
